Source: patent publication US8481494B2, “Compounds for the treatment of diseases related to protein misfolding” (priority 2009, dated 2013)
Converted amounts (≈) assume the structure as drawn.

Tests used:
Aβ(1-42) = molecular target: T1, Aβ(1-42) (Homo sapiens, UniProt P05067); test: ThT kinetics of Aβ aggregation; assay type: biochemical; details: in words
T1 construct: Aβ(1-42)-peptide (Bachem, Bubendorf, Germany) was prepared in HFIP; purchased Bachem, Bubendorf
Description: The influence of the new β-sheet ligands, based on the aminopyrazole-trimer, on the Aβ self-assembly process was first studied kinetically. Reference curves were obtained independently for both Aβ (1-40) and Aβ (1-42). In a typical experiment, one third (⅓) equivalent of thioflavine T was added to a solution of monomeric Aβ in PBS buffer, prepared in HFIP. The increase in ThT fluorescence was monitored over time, as a measure of the total amount of accumulating aggregates. […] Both peptides reached a plateau after ˜3 days, which was set as standard time period for all consecutive aggregation assays.
Care was taken to eliminate fluorescence changes induced by any other events than the aggregation process; thus each ligand was separately shown to be non-fluorescent and not to alter Tht fluorescence in mixtures. Controls with pure Aβ were identical in peptide concentration as well as buffer and solvent composition. […] Aβ (1-42): Much more impressive is the inhibitory influence of the trimeric ligands on the aggregation kinetics of the full-length Aβ (1-42). […]
Then, a mixture of 9.5 μL ThT (62.7 μM stock solution), 6 μL PBS and 38.1 μL water (bidest.) was pipetted. […] Sixty μL of aggregation mixtures were pipetted in a 384-well plate and the fluorescence intensity (exc. at 446 nm, em. at 490 nm) was measured every hour at 37° C. […]

[1] = Sedimentation of the pure ligand (self-association); assay type: physicochemical; details: ligand itself
Description: (§1) In a standard FCS experiment a 5 nM Oregon-Green-labeled Aβ solution was prepared in PBS buffer with ˜3% DMSO. […] This is not surprising, because it comprises a flat arrangement of unpolar aromatics adorned with polar groups for extensive hydrogen bonding. Finally, TEM pictures were obtained from mature Aβ fibrils ([…]) as well as globular particles (3-30 nm) grown in the absence of aminopyrazole ligands.
Such an arrangement may also result in far-reaching conformational effects, indicated already be widening of the upper U-turn; these are now proposed to destroy the existing β-sheet (FIG. 12). The high positive charge of all five lysine residues requires the use of PBS with its high ionic strength for sedimentation experiments. […] Admittedly, their structures are somewhat reminiscent of the amphiphilic hybrid peptides (e.g., KLVFF-EEEEE) presented in the nineties for aggregation prevention by surface tension increase. […]
(§2) Sedimentation velocity centrifugation was performed in an XLA (BeckmanCoulter, Palo Alto, USA) equipped with absorption optics and a four hole titanium rotor. […] Radial scans were recorded at a resolution of 0.002 cm. Detection wavelength was chosen at 493 nm to observe endlabeled FITC or Oregon Green™ and to avoid background absorbance from the test compound.

Oregon-Green-labeled Aβ = molecular target: T2, Oregon-Green-labeled Aβ (Homo sapiens, UniProt P05067); test: Sedimentation analysis (analytical ultracentrifugation) of Aβ with ligand; assay type: binding
T2 construct: aggregation mixtures of Aβ(1-42)/Aβ42-OG (17.5 nM/3.5 μM) in 10 mM NaPi, pH 7.4
Description: as §1
FIG. 6A to 6F show the results of sedimentation velocity centrifugation: s-value-distributions of Aβ samples in the presence of Trimer-OH (FIG. 6A, FIG. 6B, FIG. 6C) vs. Trim-TEG-OEt (FIG. 6D, FIG. 6E, FIG. 6F). […] FIG. 6B, FIG. 6E: s-value distributions of the control experiments as determined by 2D-SA and Monte Carlo analysis. FIG. 6C, FIG. 6F: s-value distributions of experiments with 200 μM Trimer derivative after 5 d of incubation as determined by 2D-SA and Monte Carlo analysis.
as §2
Sedimentation data were analyzed with UltraScan 9.4 (http://www.ultrascan.uthscsa.edu). […]

[2] = Solubility of the unprotected aminopyrazole trimers (stock solutions); details: water (class a) or DMSO (class b)
Description: The ligands were dissolved in 100% DMSO as 4.95 mM stock solutions and were stored at −20° C.

T2 sequence (P05067 672-713 limits assumed): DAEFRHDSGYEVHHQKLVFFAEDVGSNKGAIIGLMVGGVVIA
T2 sequence (P05067 672-713 limits assumed): as above
T1 sequence (P05067 672-713 limits assumed): as above

With `COC(=O)C(CCCCN)NC(=O)c1cc(NC(=O)c2cc(NC(=O)c3cc([N+](=O)[O-])n[nH]3)n[nH]2)n[nH]1.O=C(O)C(F)(F)F` (centres unmarked) [Trimer-Lys-OMe] the “effect on Aβ aggregation kinetics” value (Aβ(1-42)) was “accelerates Aβ aggregation”.
In the case of `O=C(O)c1cc(NC(=O)c2cc(NC(=O)c3cc([N+](=O)[O-])n[nH]3)n[nH]2)n[nH]1` [Trimer-OH, 3-(3-(3-Nitro-1H-pyrazole-5-carboxamido)-1H-pyrazole-5-carboxamido)-1H-pyrazole-5-carboxylic acid], the “size of micelles formed by self-association of the ligand” value [1] is reported as about 10 S, the “molecular weight reduction of Aβ aggregates” value (Oregon-Green-labeled Aβ; corresponding to decrease to 25 S) is reported as 50% and the “sedimentation coefficient of Aβ complex with ligand” value (Oregon-Green-labeled Aβ; dose-dependent decrease, pure Aβ above 50 S) is reported as 25 S. For the same molecule, the solubility [2] was 200 to 4950 µM (≈ 75.1 to 1860 µg/mL).
